Reference: paper PMC7810383 (Science Advances, 2021)
Peptide text beside a SMILES is read from it. * marks the point of attachment. Cbz = O=C(OCc1ccccc1)*; CH2F = FC*

Assays:
[1] = tested on: IAPs (BIRC2, BIRC3, XIAP, BIRC6); format: binding, human
[2] = tested on: BIRC2; format: cell-based, human
[3] = tested on: PARP cleavage in HeLa cells; format: cell-based, human; settings: NAA10 RNAi 72 hours, Z-VAD-FMK 40 μM, anti-PARP immunoblot
[4] = tested on: hGID/CTLH complex; format: binding, human; settings: peptide on streptavidin beads, HeLa lysate, quantitative MS
[5] = tested on: XIAP; format: biochemical, human

Compound	IAP enrichment in peptide pull-down, Nt-free versus Nt-Ac peptide [1]	Ubiquitination of streptavidin-bound peptide by XIAP (anti-ubiquitin immunoblot) [5]	also measured
H-ASVGECPAPVKK-K-(Biotin)-NH2 [ATP5J2 Nt-free biotinylated peptide]	identified IAPs as binding partners		
H-MAVPAALILREKK-K(Biotin) [Met-COMMD10 Nt-free biotinylated peptide]	did not enrich IAPs		
CN[C@@H](C)C(=O)N[C@H](C(=O)N1CCC[C@H]1c1nc(C(=O)c2ccc(F)cc2)cs1)C1CCCCC1 [LCL161]			BIRC2 levels [2]: IAP depletion
H-APPSVFAEVPQAQPV-PEG-K(Biotin)-CONH2 [GOT1 Nt-free biotinylated peptide]	no IAP enrichment		
H-AQFAFESDLHSLLQL-PEG-K(Biotin)-CONH2 [CDC20 Nt-free biotinylated peptide]	robust interactions		
H-AVGKNKRLTKK-K-FITC [RPS3A Nt-free peptide]	no IAP enrichment		
COC(=O)C[C@H](NC(=O)[C@H](C)NC(=O)[C@@H](NC(=O)OCc1ccccc1)C(C)C)C(=O)CF [Z-VAD, Benzyloxycarbonyl-Val-Ala-Asp-fluoromethyl ketone] (Cbz-Val-Ala-Asp(OMe)-CH2F)			PARP cleavage induced by NatA RNAi [3]: inhibited
H-AVPAALILREKK-K(Biotin)-NH2 [COMMD10 Nt-free biotinylated peptide]	strongly enriched	strongly ubiquitinated	hGID/CTLH complex enrichment in peptide pull-down [4]: also enriched
H-AVPIAQKSEPFKKK-K(Biotin)-NH2 [DIABLO Nt-free biotinylated peptide, reference compound]	preferential binding partners	levels that were comparable	
Ac or H-AQFAFESDLHSLLQL-PEG-K(Biotin)-CONH2 [CDC20 Nt-Ac biotinylated peptide]	no enrichment		
Ac or H-AAAGAAATHLKK-K-(Biotin)-NH2 [PIGS Nt-Ac biotinylated peptide]		not ubiquitinated	
H-MEELIVELRLKKK-PEG-(Biotin) [AFAP1 Nt-free biotinylated peptide]	did not enrich IAPs		
H-MDDDIAALVVKKK-PEG-(Biotin) [ACTB Nt-free biotinylated peptide]	did not enrich IAPs		
H-AVPSPPPASPKK-K(Biotin) [HTRA2 Nt-free biotinylated peptide, reference compound]	preferential binding partners		
H-ATPFQEGLRTFKKK-K(Biotin)-NH2 [CASP9 Nt-free biotinylated peptide, reference compound]	preferential binding partners	levels that were comparable	
H-AISSSSCELPLVAVF-PEG-K(Biotin)-CONH2 [NIT1 Nt-free biotinylated peptide]	strongly enriched		
H-AAPEEHDSPTKK-K-(Biotin)-NH2 [DDX47 Nt-free biotinylated peptide]	identified IAPs as binding partners	strongly ubiquitinated	
H-AAPWRRWPTGKK-K-(Biotin)-NH2 [TMEM223 Nt-free biotinylated peptide]	identified IAPs as binding partners		
H-AAAGAAATHLKK-K-(Biotin)-NH2 [PIGS Nt-free biotinylated peptide]	no IAP enrichment	not ubiquitinated	
